Data as given in patent publication US20190076466A1, “REDUCED SODIUM POLOXAMER-188 FORMULATIONS AND METHODS FOR USE” (MAST THERAPEUTICS, INC., priority 2015, published 2019).

Assay: osmolality by vapor pressure osmometry
Details: no poloxamer
Protocol: The osmolality of LCMF poloxamer 188 in water was evaluated over the range 25 mg/mL to 400 mg/mL using vapor pressure osmometry (Table 7). […] Any solutions with osmolality values below 270 mOsm/kg or above 300 mOsm/kg are considered hypotonic and hypertonic respectively.
Drug substance was added to sterile water for injection at 6 concentrations ranging from 15% to 40% and the osmolality values of the solutions were recorded. Sodium chloride was then added to sterile water for injection to make six sodium chloride solutions with osmolality values matching those of the poloxamer 188 solutions. An isotonic 15% poloxamer 188 solution was used as a comparator.

[Cl-].[Na+] [NaCl, Sodium chloride]
Osmolality (0.36% (w/w) NaCl in SWFI): 116 mOsm/kg | Osmolality (0.74% (w/w) NaCl in SWFI): 224 mOsm/kg | Osmolality (1.35% (w/w) NaCl in SWFI): 432 mOsm/kg | Osmolality (3.13% (w/w) NaCl in SWFI): 995 mOsm/kg | Osmolality ([…] (w/w) NaCl in SWFI): 690 mOsm/kg
